# Measured values taken from US9623031B2, “Compositions, methods and kits for treating cancer” (priority 2011, dated 2017).
# Entries after “also recorded” stand apart in the source; their conditions may differ.
# Assays:
# [1] = system: BCR-ABL^+LSC (Kit^+Sca1^+Lin^−GFP^+); assay: Apoptosis of BCR-ABL+ LSCs treated ex vivo (annexin V, flow cytometry); format: cell-based, mouse
# Method: Apoptosis. Apoptosis of LSCs was performed using annexin V as described below in Supplementary Information and Methods.
# Apoptosis. The LSCs were diluted in DMEM, resuspended using a 16-gauge needle, and collected by centrifugation. 1×10^5 cells were resuspended in 200 μl of binding buffer (0.1 M HEPES with 1.4 M NaCl, 25 mM CaCl2, pH 7.4). Annexin V FITC (BD Biosciences) was incubated with cells for 15 min on ice followed by flow cytometric analysis.
# The ability of CyPGs derived from arachidonic acid (2 series PGs) to induce apoptosis was tested in cultures of LSCs from FV infected mice and in the murine CML model. […] 15d-PGJ2 is known as a PPAPγ agonist. […] In FIG. 7C Δ^12-PGJ3, 15d-PGJ2 or 9,10-dihydro-15d-PGJ2 are tested for their ability to induce apoptosis in a murine CML model. […] The cells were stained with annexin V-FITC and analyzed by flow cytometry. Representative of N=4. […] Inset: Effect of rosiglitazone on the apoptosis of LSC. Rosiglitazone (0.1-2.0 μM) was incubated with LSC in the culture media for 36 h as described earlier and the cells were subjected to annexin-V staining followed by flow cytometry. […] LSC were treated ex vivo with indicated concentrations of each compound for 36 h.
# (§1) Following 36 h of incubation, apoptotic cells were quantified by annexin V staining. […] In a related study to address if Δ^12-PGJ3 treatment would cause any degranulation of granulocytes, a rat basophilic cell line ([…]) was treated with 100 nM Δ^12-PGJ3 and the degranulation was followed by quantitating the release of histamine and a second marker of degranulation, hexoseaminidase.
# In this experiment, 500,000 BCR-ABL+ LSCs were plated in a 24-well plate followed and were treated with 25 nM PGD2Me or 100 nM ZK118182 (both are agonists of DP) for 24 h. GFP^+ cells were analyzed by flow cytometry. These agonists were purchased from Cayman Chemicals, MI.
# p53 [2] = assay: p53 expression in FV-LSCs treated ex vivo (RT-PCR, nuclear extracts); format: cell-based, mouse
# p53 [3] = assay: p53 expression in BCR-ABL+ LSCs treated ex vivo; format: cell-based, mouse
# [4] = system: normal HSCs (MSCV-GFP^+HSC); assay: Effect on normal HSCs (MSCV-GFP+ HSC) treated ex vivo; conditions: antagonists/inhibitor 10 nM; Δ^12-PGJ3 25 nM; 36 h
# [5] = system: primary human AML cells; LSCs (CD34+CD38−CD123+); assay: Apoptosis of primary human AML cells and AML LSCs (annexin V); format: cell-based; conditions: CAY10471 10 nM pretreatment, then Δ^12-PGJ3 100 nM
# Method: In this experiment, 110,000/well primary AML cells were cultured in above specified media for 6 and 12 hrs. Cells were collected and washed once with ice cold PBS. The cells were resuspended in 200 ul 1× Apoptosis buffer with annexin-V PE to all tubes. The cells were washed in PBS and resuspended in 600 ul PBS and transfer into flow tubes and analyzed for apoptosis (Annexin V+ cells) on FC-500. […] In this experiment, 110,000/well AML cells were cultured in earlier mentioned media for 6 and 12 hrs. Cells were collected and washed once in PBS and resuspended in 200 ul PBS and blocked with FC receptor antibody 10 mins RT. The following antibodies were added: CD38, CD123, CD34, CD117 (BD bioscience) for 1 hr on ice. Cells were washed in PBS once and resuspended in 200 ul of apoptotic buffer, and annexin V was added and incubated for 15 mins. Apoptotic cells (Annexin V+ cells) were counted by flow cytometry. […] Cells were collected and washed once in PBS and resuspended in 200 ul PBS and blocked with FC receptor antibody 10 mins RT. The following antibodies were added: CD38, CD123, CD34 (BD bioscience) for 1 hr on ice. Cells were washed in PBS once and resuspended in 200 ul of apoptotic buffer, and annexin V was added and incubated for 15 mins. Apoptotic cells (Annexin V+ cells) were counted by flow cytometry.
# Referring to the results shown in FIG. 16, these experiments were performed with primary AML stem cells isolated from a patient. […] In an identical experiment, the cells were also treated with a synthetic DP agonist, ZK118182 (100 nM). Apoptosis of cells (by annexin V staining) was measured using flow cytometry.
# [6] = system: FV-LSCs (M34^+Kit^+Sca1^+); assay: Apoptosis of FV-LSCs treated ex vivo (annexin V, flow cytometry); format: cell-based, mouse; conditions: 25 nM, 36 h, annexin V
# Method: On day 14 after infection, spleens were isolated and a single cell suspension of spleen cells was generated. The cells were filtered through a 70 μm sterile filter and flow-through cells were resuspended in RBC lysis buffer followed by centrifugation. Leukemia stem cells were isolated by FACS. Spleen cells were labeled with anti-Kit, Sca1 (BioLegend, San Diego, Calif.) and M34 antibodies. […] As indicated M34^+Kit^+Sca1^+ cells were cultured in Methocult media (Stem Cell Technologies Vancouver BC) M3334 supplemented with 200 ng/ml Sonic Hedgehog (Shh), 15 ng/ml bone morphogenetic protein-4 (BMP4) (both from R&D Systems Minneapolis, Minn.), and 50 ng/ml stem cell factor (SCF; Peprotech).
# The cells were stained with annexin V-FITC and analyzed by flow cytometry. […] Means±s.e.m. *P<0.001 compared to vehicle (PBS). […] Inset: Effect of rosiglitazone on the apoptosis of LSC. Rosiglitazone (0.1-2.0 μM) was incubated with LSC in the culture media for 36 h as described earlier and the cells were subjected to annexin-V staining followed by flow cytometry. […] LSC were treated ex vivo with indicated concentrations of each compound for 36 h. Mean±s.e.m. shown *P<0.001.
# [7] = system: Friend virus (FV)-induced erythroleukemia; assay: FV-induced erythroleukemia in FV-infected mice, intraperitoneal treatment; format: in vivo, mouse
# Excerpt: FV-induced erythroleukemia and production of FV leukemia stem cells (FV-LSCs): BALB/c mice were infected with FV as previously described (Subramanian A et al., J Virol. 2008; 82:382-393; Harandi O F et al., J Clin Invest. 2010; 120:4507-4519). On day 14 after infection, spleens were isolated and a single cell suspension of spleen cells was generated. The cells were filtered through a 70 μm sterile filter and flow-through cells were resuspended in RBC lysis buffer followed by centrifugation. Leukemia stem cells were isolated by FACS. Spleen cells were labeled with anti-Kit, Sca1 (BioLegend, San Diego, Calif.) and M34 antibodies. M34 is a monoclonal antibody that recognizes the envelope protein of SFFV (Chesebro B et al., Virology. 1981; 112:131-144) and was used as previously described (Subramanian A et al., J Virol. 2008; 82:382-393). As indicated M34^+Kit^+Sca1^+ cells were cultured in Methocult media (Stem Cell Technologies Vancouver BC) M3334 supplemented with 200 ng/ml Sonic Hedgehog (Shh), 15 ng/ml bone morphogenetic protein-4 (BMP4) (both from R&D Systems Minneapolis, Minn.), and 50 ng/ml stem cell factor (SCF; Peprotech). For CFU-FV assays, cells were plated in methylcellulose media containing fetal calf serum, but lacking added growth factors as previously described (Mager D L et al., Proc Natl Acad Sci USA. 1981; 78:1703-1707).
# Complete blood counts of mice treated with Δ^12-PGJ3 (0.05 mg/kg) were examined. There is no difference in treated mice and untransplanted control mice in terms of white blood cell counts, red blood cell counts or platelet counts. Changes in hematological parameters in FV-infected mice upon treatment with CyPGs were examined. FV-infected Balb/c mice were treated with Δ^12-PGJ3 (0.05 mg/kg) intraperitoneally for 7 d following which the mice were sacrificed and hematological parameters were analyzed on an Advia blood analyzer. FV-infected Δ^12-PGJ3 treated mice were compared to infected vehicle controls. N=5 per group, all data are means±s.e.m. *P<0.05. 3% w/v hydroxypropyl-3-cyclodextrin was used as a vehicle in in vivo experiments. Spleen sizes of FV-infected mice that were treated with either vehicle, 9,10-dihydro-15d-PGJ2 (0.05 mg/kg), or 15d-PGJ2 (0.05 mg/kg) were examined; N=3 pre group. Hematological parameters of Balb/c uninfected, infected, and 15d-PGJ2 treated mice were examined. N=5 per group. All data were means±s.e.m. *P<0.05.
# FV-LSC were targeted by 15d-PGJ2 in the spleen of FV-infected mice. FV-infected mice were treated with 15d-PGJ2 or 9,10-dihydro-15d-PGJ2 at 0.05 mg/kg for 7 d. The splenic LSC (M34^+Sca1^+Kit^+) cells were analyzed by flow cytometry on day 14 post infection. […] Uninfected and infected vehicle controls were used for comparison. N=3; *P<0.05. […] The colonies were counted 10-14 days after plating. N=3 mice per group, *p<0.05.
# [8] = system: FV-LSCs transplanted into BALB/c-Stk^−/− mice
# Method: Transplant of FV-LSCs into BALB/c-Stk^−/− mice: FV-LSCs were generated as described above. 2.5×10^5 FV-LSCs were transplanted into BALB/c-Stk^−/− mice by retro-orbital injection. Six weeks after transplant the mice were treated with CyPGs or vehicle control as indicated in the text.
# Treatment of Mice with PGs: Mice with FV-induced erythroleukemia or MIGR-BCR-ABL induced CML were treated on the indicated days with CyPGs. Mice were treated with a daily intraperitoneal injection of Δ^12-PGJ3 (0.01-0.1 mg/kg), 15d-PGJ2 (0.1 mg/kg), or 9,10-dihydro-15d-PGJ2 (0.1 mg/kg) for 7 days. All three compounds were formulated with hydroxypropyl-β-cyclodextrin (30% w/v; Sigma; vehicle control).
# Stk^−/− mice are resistant to Friend virus infection so the leukemia developed by the transplanted mice is result of the transplanted LSCs and not FV infection. […] LSCs sorted from the spleens of FV-infected mice were transplanted into Stk^−/− mice (on a Balb/c background). After 6 weeks such mice were treated daily for 1 week with vehicle (hydroxypropyl-β-cyclodextrin), 15d-PGJ2 (0.05 mg/kg), or 9,10-dihydro-15d-PGJ2 (0.05 mg/kg) by intraperitoneal injection. The mice were sacrificed 51 days post LSC transplantation for analysis. An analysis of spleens of mice comparing splenomegaly in vehicle, 15d-PGJ2, or 9,10-dihydro-15d-PGJ2 treated transplanted mice was performed. Spleen weight compared to control (untransplanted mice) after treatment and WBC counts in the peripheral blood of the mice after treatment were examined, and a flow cytometric analysis of the spleen of untransplanted and LSC transplanted mice after treatment was performed. All data were mean±s.e.m. *p<0.05 compared to control or 9,10-dihydro-15d-PGJ2 treated groups. N=5 per group.
# [9] = system: rat basophilic cell line (RBL-23); assay: Degranulation of basophilic cells (histamine and hexoseaminidase release); conditions: Δ^12-PGJ3 100 nM
# Method: as §1
# [10] = system: Human unfractionated bone marrow cells; assay: Colony formation of normal human bone marrow cells in methylcellulose; conditions: methylcellulose with multiple growth factors, 12 days
# Method: Human unfractionated bone marrow cells (5×10^5 per well) were plated in methylcellulose complete media containing IL-3, GM-CSF, G-CSF, SCF and Epo supplemented with the indicated concentrations of drugs. Total colonies were counted after 12 days.
smiles,measurement,setting,value
"O=c1cc(-c2cccc3c2Sc2ccccc2S3)oc(N2CCOCC2)c1 [MTPO, 2-Morpholin-4-yl-6-thianthren-1-yl-pyran-4-one]",block of Δ^12-PGJ3-induced apoptosis by ATM inhibitor,"[1]; pretreatment, then 25 nM Δ^12-PGJ3",blocked the effect of Δ^12-PGJ3 on apoptosis
same,block of Δ^12-PGJ3-dependent p53 expression by ATM inhibitors,"p53 [2]; preincubation, then Δ^12-PGJ3",blocked the CyPG-dependent expression of p53
same,block of Δ^12-PGJ3-induced p53 expression by ATM inhibitor,p53 [3]; pretreatment,blocked
same,viability of MSCV-HSC control cells,[4],not affected
"CN(C1CCc2c(c3ccccc3n2CC(=O)O)C1)S(=O)(=O)c1ccc(F)cc1 (stereo not shown) [CAY10471, reference compound]",inhibition of Δ^12-PGJ3-induced apoptosis by DP antagonist,"[1]; antagonist 10 nM, 2 h pretreatment, then 25 nM Δ^12-PGJ3, 36 h",inhibited
same,block of Δ^12-PGJ3-induced apoptosis of LSCs,[5],completely blocked the apoptosis
same,viability of MSCV-HSC control cells,[4],not affected
"CCCCC/C=C\C=C1\C(=O)CC[C@@H]1C/C=C\CCCC(=O)O [9,10-dihydro-15d-PGJ2]",apoptosis of Sca1+GFP+Kit+ BCR-ABL+LSC from spleen,"[1]; 25-1000 nM, 36 h",had no effect; also recorded: ineffective even at high concentrations up to 1 μM
same,apoptosis of FV-LSCs,[6],fail to induce apoptosis; also recorded: no apoptosis
same,LSCs (Sca1+Kit+M34+) in the spleen,"[7]; 0.05 mg/kg i.p. 7 d, flow cytometry day 14 post infection",ineffective
same,"splenomegaly, comparator CyPGs",[7]; i.p. 7 days,did not have any effect on the amelioration of splenomegaly
same,p53 expression at transcript level,"p53 [2]; 10 or 25 nM, 12 h",ineffective
same,p53 mRNA,p53 [3]; 25 nM ex vivo,ineffective
same,"hematocrit, WBC counts and reticulocyte counts","[8]; FV-induced leukemia, FIG. 3C",had no effect on any parameter tested
same,LSCs (M34+Sca1+Kit+) in the spleen,[8]; flow cytometry after 1 week i.p. treatment,did not have any effect on their viability
same,splenomegaly,"[8]; Δ^12-PGJ3 0.025 and 0.05 mg/kg, comparators 0.05 mg/kg, i.p. 1 week",nor alleviated splenomegaly
C[C@H](CCC(=O)O)C[C@H](C)C[C@H](C)C(=O)/C=C(\O)[C@H](C)C[C@H](C)C/C=C/[C@@H](C)[C@@H](O)[C@@H](C)[C@@H](O)C[C@@H]1CC[C@@](C)([C@H]2CC[C@@](C)([C@@H](C)O)O2)O1 [ionomycin],degranulation (release of histamine and hexoseaminidase),[9],caused extensive production of histamine and hexoseaminidase
"CC(C)OC(=O)COCC=CCC1C(Cl)CC(O)C1C=CC(O)C1CCCCC1 (stereo not drawn) [ZK118182, [[4-[5R-chloro-2Z-[3R-cyclohexyl-3 S-hydroxy-1R-propenyl]-3 S-hydroxycyclopentyl]-2R-butenyl]oxy]-acetic acid, isopropyl ester]",apoptosis of BCR-ABL+ LSCs by synthetic DP agonists (GFP+ cells),"[1]; 25 nM PGD2Me or 100 nM ZK118182, 24 h",can induce apoptosis of LSCs
same,total colonies of human bone marrow cells,[10],had no effect
